Where a SMILES comes first, the peptide text is derived from it. [ ]: non-standard residue; d: D form. The star is where a group is joined. Bz = O=C(c1ccccc1)*; NPr2 = CCCN(CCC)*
Tests used:
[1] = biological target: T1, human recombinant MC1 receptor (Homo sapiens, UniProt Q01726); assay: MC1R activation, cAMP HTRF assay in CHO-K1 cells; format: cell-based
T1 construct: host or cells: CHO-K1
Method: (§1) MCR-activation assays were performed by means of a cAMP HTRF (homogeneous time resolved fluorescence) assay for Gs-coupled receptors (cAMP Gs dynamic kit, Cisbio bioassays, 62AM4PEC). CHO-K1 cells expressing human recombinant MC1 receptor (EuroscreenFast, Gosselies, Belgium) (or MC2R, MC3R, MC4R, MC5R) were grown prior to the test in media without antibiotic. They were detached by gentle flushing with PBS-EDTA (5 mM EDTA), recovered by centrifugation, and resuspended in assay buffer (5 mM KCl, 1.25 mM MgSO4, 124 mM NaCl, 25 mM HEPES, 13.3 mM Glucose, 1.25 mM KH2PO4, 1.45 mM CaCl2, 0.5 g/L BSA, supplemented with 1 mM IBMX). Dose response curves were performed in parallel with the reference compounds. For agonist test (96-well), 12 µL of cells were mixed with 12 µL of the test compound diluted at increasing concentrations in assay buffer, and then incubated for 30 min at room temperature. After addition of the lysis buffer and 1 h incubation, fluorescence signal was measured, according to the manufacturer’s specifications, with the homogeneous time resolved fluorescence (HTRF) kit.

MC4R = biological target: T2, MC4R (Homo sapiens, UniProt P32245); assay: MC4R activation, cAMP HTRF assay in CHO-K1 cells; format: cell-based; settings: eight concentrations, 0.01 to 100,000 nM
T2 construct: host or cells: CHO-K1
T2 sequence (P32245 whole entry): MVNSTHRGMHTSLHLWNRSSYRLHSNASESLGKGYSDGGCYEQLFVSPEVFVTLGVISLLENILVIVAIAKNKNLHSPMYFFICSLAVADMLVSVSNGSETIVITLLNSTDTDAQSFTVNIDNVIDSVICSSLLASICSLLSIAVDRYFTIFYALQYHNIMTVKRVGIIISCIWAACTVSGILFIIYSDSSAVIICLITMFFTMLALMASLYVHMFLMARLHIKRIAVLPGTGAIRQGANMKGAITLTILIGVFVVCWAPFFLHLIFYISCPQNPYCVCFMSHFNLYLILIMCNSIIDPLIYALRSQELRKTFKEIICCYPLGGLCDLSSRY
Method: as §1

MC5R = biological target: T3, MC5R (Homo sapiens, UniProt P33032); assay: MC5R activation, cAMP HTRF assay in CHO-K1 cells; format: cell-based
T3 construct: host or cells: CHO-K1
T3 sequence (P33032 whole entry): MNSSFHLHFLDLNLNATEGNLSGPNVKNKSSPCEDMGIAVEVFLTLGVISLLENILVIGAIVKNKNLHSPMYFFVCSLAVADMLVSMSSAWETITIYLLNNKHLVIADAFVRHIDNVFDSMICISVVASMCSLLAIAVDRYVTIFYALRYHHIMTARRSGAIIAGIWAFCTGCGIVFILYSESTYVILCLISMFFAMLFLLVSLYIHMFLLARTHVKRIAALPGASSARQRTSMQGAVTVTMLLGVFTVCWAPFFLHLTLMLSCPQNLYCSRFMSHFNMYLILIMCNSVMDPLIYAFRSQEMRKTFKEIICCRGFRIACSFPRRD
Method: as §1

MT2R = biological target: T4, MT2R (Homo sapiens, UniProt P49286); assay: MT2R activation, GTPγS scintillation proximity assay on CHO-K1 membranes; format: biochemical; settings: eight concentrations, 0.01 to 100,000 nM
T4 construct: host or cells: CHO-K1 (membrane preparations)
T4 sequence (P49286 whole entry): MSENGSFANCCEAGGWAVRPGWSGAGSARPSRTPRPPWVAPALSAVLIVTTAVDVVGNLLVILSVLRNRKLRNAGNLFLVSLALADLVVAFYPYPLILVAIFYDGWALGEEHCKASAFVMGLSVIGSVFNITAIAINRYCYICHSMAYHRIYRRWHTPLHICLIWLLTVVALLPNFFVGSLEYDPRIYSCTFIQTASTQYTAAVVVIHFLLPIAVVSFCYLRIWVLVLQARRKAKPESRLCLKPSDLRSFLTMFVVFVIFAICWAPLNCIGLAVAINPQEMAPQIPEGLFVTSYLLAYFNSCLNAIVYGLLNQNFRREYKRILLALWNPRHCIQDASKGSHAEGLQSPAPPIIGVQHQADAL
Method: (§2) Melatonin (MT1R and MT2R) and opioid receptor (OP1R, OP2R, and OP3R, corresponding to human delta, kappa, and mu opioid receptors) activation assays were performed by means of GTPγS scintillation proximity assays. For agonist testing, membrane preparations from CHO-K1 cells expressing each receptor (EuroscreenFast, Gosselies, Belgium) were mixed with guanosine diphosphate (GDP) (v/v). In parallel, GTPγ[^35S] (PerkinElmer, NEG030X, 0.1 nM final assay concentration) was mixed with PVT-WGA beads (Perkin Elmer, RPNQ001, 0.5 mg/well final assay density) (v/v) just before starting the reaction. The following reagents were then successively added in the wells of an Optiplate (Perkin Elmer): A total of 50 µL of test or reference ligand diluted in assay buffer, 10 µL of assay buffer (20 mM HEPES pH 7.4; 100–200 mM NaCl, 10 µg/mL saponin, MgCl2 at optimized concentration for the specific receptor, 0%–0.1% BSA), 20 µL of the membranes: GDP mix, and 20 µL of the GTPγ[^35S]: Beads mix. The plates were covered with a top seal, mixed on an orbital shaker for 2 min, and then incubated for 1 h at room temperature. Then the plates were centrifuged for 10 min at 2000 rpm, incubated at room temperature for 1 h, and counted for 1 min/well with a PerkinElmer TopCount™ reader.

OP2R = biological target: T5, OP2R (Homo sapiens, UniProt P41145); assay: OP2R (kappa opioid) activation, GTPγS scintillation proximity assay; format: biochemical; settings: eight concentrations, 0.01 to 100,000 nM
T5 construct: host or cells: CHO-K1 (membrane preparations)
T5 sequence (P41145 whole entry): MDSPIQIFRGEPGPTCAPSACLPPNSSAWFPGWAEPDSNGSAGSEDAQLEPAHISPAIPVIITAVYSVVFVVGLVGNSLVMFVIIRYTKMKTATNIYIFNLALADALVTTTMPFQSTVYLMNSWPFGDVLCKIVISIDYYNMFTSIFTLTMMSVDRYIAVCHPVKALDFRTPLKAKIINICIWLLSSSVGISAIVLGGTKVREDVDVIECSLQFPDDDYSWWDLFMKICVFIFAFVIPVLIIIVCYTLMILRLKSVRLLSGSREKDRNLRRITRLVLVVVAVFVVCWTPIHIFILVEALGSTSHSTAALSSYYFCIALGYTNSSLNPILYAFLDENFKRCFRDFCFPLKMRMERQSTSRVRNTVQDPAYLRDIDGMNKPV
Method: as §2

OP3R = biological target: T6, OP3R (Homo sapiens, UniProt P35372); assay: OP3R (mu opioid) activation, GTPγS scintillation proximity assay; format: biochemical; settings: eight concentrations, 0.01 to 100,000 nM
T6 construct: host or cells: CHO-K1 (membrane preparations)
T6 sequence (P35372 whole entry): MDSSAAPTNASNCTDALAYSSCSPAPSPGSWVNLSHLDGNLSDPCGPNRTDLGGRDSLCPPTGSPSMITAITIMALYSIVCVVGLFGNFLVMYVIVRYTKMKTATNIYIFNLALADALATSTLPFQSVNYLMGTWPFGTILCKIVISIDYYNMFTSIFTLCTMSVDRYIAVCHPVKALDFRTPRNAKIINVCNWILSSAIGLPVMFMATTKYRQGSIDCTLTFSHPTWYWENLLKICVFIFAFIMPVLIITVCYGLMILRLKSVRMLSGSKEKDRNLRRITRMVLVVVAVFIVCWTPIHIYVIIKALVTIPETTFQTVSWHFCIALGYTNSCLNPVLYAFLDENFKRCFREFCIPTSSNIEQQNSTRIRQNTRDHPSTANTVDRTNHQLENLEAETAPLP
Method: as §2

human MCH1R = human MCH1R (Homo sapiens, UniProt Q99705); assay: MCH1R activation, Aequorin assay; format: cell-based; settings: eight concentrations, 0.01 to 100,000 nM
Chain of human MCH1R (Q99705 whole entry): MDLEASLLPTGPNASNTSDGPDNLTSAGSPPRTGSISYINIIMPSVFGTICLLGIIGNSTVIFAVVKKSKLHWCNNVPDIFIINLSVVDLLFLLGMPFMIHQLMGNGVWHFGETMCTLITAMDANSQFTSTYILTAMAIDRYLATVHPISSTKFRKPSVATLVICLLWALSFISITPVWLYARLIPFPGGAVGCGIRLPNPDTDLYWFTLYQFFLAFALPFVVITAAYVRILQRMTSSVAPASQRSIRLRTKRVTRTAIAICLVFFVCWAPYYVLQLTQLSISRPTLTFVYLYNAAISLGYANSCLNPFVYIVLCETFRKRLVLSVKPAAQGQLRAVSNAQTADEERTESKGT
Method: (§3) Melanin-concentrating hormone receptor (MCHR), endothelin-1 receptor (ETBR), and serotonin-receptor (5-HT2AR) assays were performed by means of Aequorin assays. Recombinant cells co-expressing human MCH1R, MCH2R, ETBR, or 5-HT2AR and mitochondrial apoaequorin (MCH1R, MCH2R and 5-HT2AR cells also co-express recombinant Gα16 protein) (EuroscreenFast, Gosselies, Belgium), grown 18 h prior to the test in media without antibiotics, were detached by gentle flushing with PBS-EDTA (5 mM EDTA), recovered by centrifugation, and resuspended in assay buffer (DMEM/HAM’s F12 with HEPES + 0.1% BSA protease free). Cells were incubated under agitation at room temperature for at least 4 h with Coelenterazine h (Promega, X300X, 0.5 µM final concentration). Dose response curves with the reference compounds were performed before testing the compounds. For agonist testing, 50 µL of cell suspension was injected on 50 µL of test compound or reference agonist diluted in assay buffer and plated in a 96-well plate. The resulting emission of light was recorded using the Hamamatsu Functional Drug Screening System 6000 (FDSS 6000). […] Agonist activity of test compound was expressed as a percentage of the activity of the reference agonist at its EC100 concentration.

human 5-HT2AR = human 5-HT2AR (Homo sapiens, UniProt P28223); assay: 5-HT2AR activation, Aequorin assay; format: cell-based; settings: eight concentrations, 0.01 to 100,000 nM
Chain of human 5-HT2AR (P28223 whole entry): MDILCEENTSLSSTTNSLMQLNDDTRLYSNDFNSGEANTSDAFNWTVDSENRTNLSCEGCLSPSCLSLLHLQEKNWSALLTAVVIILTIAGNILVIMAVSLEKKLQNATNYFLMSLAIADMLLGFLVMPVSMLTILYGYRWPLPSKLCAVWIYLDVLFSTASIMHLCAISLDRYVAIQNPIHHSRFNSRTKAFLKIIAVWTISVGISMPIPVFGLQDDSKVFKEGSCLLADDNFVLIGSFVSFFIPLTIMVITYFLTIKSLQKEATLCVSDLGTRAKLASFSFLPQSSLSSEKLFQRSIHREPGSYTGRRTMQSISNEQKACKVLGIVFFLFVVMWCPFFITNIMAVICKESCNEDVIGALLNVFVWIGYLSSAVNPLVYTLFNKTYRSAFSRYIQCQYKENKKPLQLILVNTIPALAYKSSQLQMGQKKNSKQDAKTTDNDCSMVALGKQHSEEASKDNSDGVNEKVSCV
Method: as §3

MITF = MITF protein expression in human skin ex vivo (immunohistochemistry); format: cell-based; settings: topical 30, 100 and 200 µM, six days; p < 0.05
Method: Following declaration of Helsinki principles (DoH-Oct2013, World Medical Association, Ferney-Voltaire, France), human skin samples were obtained from elective plastic surgery after informed consent was obtained. For the two experiments shown in Figure 2, Figure 3 and Figure 4, we had one person with an individual topology angle (ITA°) of 18, and one person with an ITA° of 39 [69]. The skin samples were cut in pieces of 8 × 3 mm and cultured up to day 6. Skin samples were cultured in an air–liquid interface in a perforated ring of stainless steel in contact with culture medium (modified Williams’ E medium). The culture medium was renewed every three days (i.e., day 0–3). Compounds were added daily in DMSO at 4 µL volume. At day 6, the skin samples were fixed in formalin, embedded in paraplast, and cut at the microtome for histochemical staining and consequent image analysis. Six skin biopsies were used for each single treatment.
Twelve skin sections from the ex vivo melanogenesis experiment above were immunoassayed with the selected antibodies (TYR, Thermo Scientific #MS-800-P0 (Thermo Scientific, Waltham, MA, USA); TYRP-1, Covance #SIG-38150 (Covance Inc., Princeton, NJ, USA), MITF, Abcam #ab80651 (Abcam plc, Cambridge, UK). The number of positive cells within the epidermis was counted and the value was normalized upon the length of the basal lamina, thus obtaining a score. […]

MC1R = MC1R expression in ex vivo epidermis in the presence of UVA; format: cell-based, human; settings: ex vivo epidermis in the presence of UVA (Figure S1)

T1 sequence (Q01726 whole entry): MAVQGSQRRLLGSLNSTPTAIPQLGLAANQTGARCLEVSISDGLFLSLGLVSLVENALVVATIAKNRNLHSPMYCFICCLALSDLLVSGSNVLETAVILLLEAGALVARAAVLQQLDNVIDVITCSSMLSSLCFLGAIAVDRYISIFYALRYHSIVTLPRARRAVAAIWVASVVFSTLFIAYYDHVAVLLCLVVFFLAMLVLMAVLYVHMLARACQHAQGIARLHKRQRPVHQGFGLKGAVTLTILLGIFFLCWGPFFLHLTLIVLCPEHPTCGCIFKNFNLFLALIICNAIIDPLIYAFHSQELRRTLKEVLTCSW

Structure (SMILES): CCCN(CCC)C(=O)[C@@H](Cc1c[nH]c2ccccc12)NC(=O)[C@H](CCCNC(=N)N)NC(=O)[C@@H](Cc1ccccc1)NC(=O)[C@H](Cc1c[nH]cn1)NC(=O)CNC(=O)c1ccccc1 [Peptide 4] (Bz-GH[dF]R[dW]-NPr2)
- EC50 [1]: 0.00042 µM
- EC50 (MC4R): 0.136 µM
- EC50 (MC5R; eight concentrations, 0.01 to 100,000 nM): > 100 µM
- Activation of MC5R (MC5R; up to 100 µM): no significant activation
- EC50 (MT2R): > 100 µM
- EC50 (OP2R): > 100 µM
- EC50 (OP3R): > 100 µM
- EC50 (human MCH1R): > 100 µM
- EC50 (human 5-HT2AR): > 100 µM
- Maximal induction of MITF protein expression vs vehicle (MITF): 79%
- Influence on expression of MC1R (MC1R): no influence
